# Measured values: US9849198B2, “Discrete imaging of hepatic oxidative and nitrosative stress with two-channel nanoparticles for in vivo drug safety screening” (The Board of Trustees of the Leland Stanford Junior …, priority 2013, dated 2017)
# Legend:
# [1] = test system: APAP-induced hepatic ROS and RNS production; assay: In vivo monitoring of remediation of APAP-induced hepatotoxicity with enzyme inhibitors and antioxidant scavengers; design: species or system mice; details: for FL index / ONOO/HOCl production in liver / luminescence emission / H2O2 production in liver: APAP 300 mg/kg i.p. with GSH 200 mg/kg i.v., 1-ABT 2×100 mg/kg i.p. or t-1,2-DCE 0.2 mg/kg i.p.
# Method: To this end, the effects of inhibitors of APAP bioactivation on in vivo hepatic ROS and RNS production were evaluated using the CF-SPNs of the disclosure (FIGS. 4A, 4C, and 4D).
# Without wishing to be bound by any one theory, a mechanism for APAP bioactivation involves CYP450-mediated oxidation to an iminoquinone, N-acetylparaquinonimine (NAPQI), which can bind directly to cellular proteins to induce mitochondrial dysfunction and the production of ONOO, or undergo reduction by molecular oxygen to form superoxide (O2.^−) and H2O2 (FIG. 4B).
# For inhibitor studies, animals were treated with 200 mg/kg of GSH intravenously 5 min prior to drug treatment (James et al., (2003) Toxicol. Sci. 75: 458-467), with 0.2 mg/kg t-1,2-DCE intraperitoneally 2 h prior to drug treatment (Jackson et al., (2000) Toxicol. Sci. 55: 266-273), or with 100 mg/kg 1-ABT intraperitoneally 12 and 24 h prior to drug treatment (as described in Jackson et al., (2000) Toxicol. Sci. 55: 266-273).
# [2] = test system: drug-induced hepatic oxidative and nitrosative stress; assay: Real-time in vivo CF-SPN imaging of drug-induced hepatotoxicity (chemiluminescence and fluorescence index); design: species or system female nude mice
# Method: Female nude mice were administered a given dose of APAP intraperitoneally, anesthetized, and fitted with tail vein catheters.
# All animal experiments involved 8-10 week old female nude mice (Charles River Laboratories International, Inc., Mass., USA). Animals were fasted for 8 h prior to imaging for all drug-induced hepatotoxicity imaging. Animals were treated intraperitoneally with sterilized saline solutions of APAP (10 mg/mL) or INH (10 mg/mL) and were then anesthetized with intraperitoneal injection of 100 mg/kg ketamine and 10 mg/mL xylazine. A tail vein catheter was inserted, and the mice were placed in an IVIS® Spectrum imaging system. Fifteen minutes after the administration of drug, 0.8 mg CF-SPN was injected intravenously through the tail vein catheter, and imaging began immediately. Luminescence images were acquired for 3 min with an open filter, and fluorescence images were acquired using autoexposure with excitation of 580±10 nm, and emission at both 680±10 nm and 820±10 nm.
# Luminescence data was processed using Living Image software (v. 4.3.1, Perkin Elmer, Mass., USA) for all experiments, in addition to fluorescence data for biodistribution experiments. For fluorescent ratiometric mapping of liver intensity, image scale bars were normalized, with the scale set to a red color scheme.
# Fluorescence images without photograph overlay were exported as TIFF, read into Matlab® (v. 8.0.0.783, The MathWorks Inc., CO, USA) where the percent difference between the fluorescence intensity at 680 nm and 820 nm was mapped for the liver region of interest. To plot the fluorescence index (FL index) over time, fluorescence intensities of the liver region of interest were extracted for images acquired with emission at 680 nm and at 820 nm using Living Image software. The intensity values, measured in units of radiance efficiency, were exported to Excel® where the percent difference in emission intensity at 680 nm and 820 nm was calculated. Finally, the FL index was calculated as the ratio of the percent difference of drug treated animals to that of control animals. All statistical analyses were performed using Prism software (v. 5.0c, GraphPad Software Inc., CA, USA).
# [3] = test system: liver tissue; assay: Histology (H&E), nitrotyrosine immunohistochemistry and TUNEL staining of liver after drug challenge; assay type: in vivo, mice
# Method: The correlation of an imaging biomarker with histological changes in the tissue of interest is desirable to validate the use of a biomarker for indicating an intended pathological outcome. To this end, histological and immunohistochemical analysis of liver tissue was performed on mice 45 min (FIGS. 3D and 11) and 180 min (FIGS. 3E and 11) following treatment with the indicated doses of APAP.
# Animals were imaged longitudinally for the indicated lengths of time, warmed until observable sternal recumbence, and then returned to their cage. Animals were euthanized 180 min following drug treatment, and their livers were resected and placed into buffered formalin for histological examination. A separate set of animals was fasted, treated with drug, and their livers were resected after euthanasia to provide tissues for histological examination 45 min following drug treatment.
# All tissues were embedded in paraffin prior to 10 micron sectioning. Histology samples were stained by hematoxylin and eosin under standard protocols. Immunohistochemistry samples were processed using an anti-nitrotyrosine primary antibody (Life Technologies Inc., NY, USA) at 1:500 dilution, with color development according to the protocol described in the DAKO LSB+ kit. Endogenous peroxidases were quenched prior to processing. TUNEL staining was performed according to the manufacturer instructions using the ApopTag Plus Peroxidase In Situ Apoptosis Kit (EMD Millipore, Mass., USA). All images were acquired using an Olympus IX2-UCB (Olympus America Inc., PA, USA) inverted fluorescence microscope equipped with a Nuance (CRi Inc., MA, USA) hyperspectral camera capable of brightfield full color imaging.
# [4] = test system: liver H2O2; assay: Extension of H2O2 detection window by readministration of CF-SPN after APAP; assay type: in vivo, mice; details: APAP 300 mg/kg i.p.
# Method: FIG. 10A illustrates extension luminescent images of the time course of H2O2 detection after drug challenge by readministration of CF-SPN. Mice were administered 300 mg/kg APAP (top row, 1-4) or saline (bottom row, 5-8) i.p., followed by the administration of 0.8 mg CF-SPN i.v. After 25 min, CF-NP was readministered i.v.
# FIG. 10B is a graph illustrating the quantitation of liver luminescence. Black arrow in indicates CF-SPN readministration. Numbers on images correspond to time points indicated on plot.
# This elevation in luminescence from APAP overdose was sustained over the time course of imaging (FIG. 3B). However, due to the baseline consumption of CPPO that had been observed in mouse serum (FIG. 7B), the ability to extend the H2O2 detection window with the re-administration of CF-SPN was assessed (FIG. 10). The re-administration of CF-SPN following treatment with a hepatotoxic dose of APAP (300 mg/kg) produced an elevated luminescence signal having approximately 50% of the intensity of the initial CF-SPN injection.
# [5] = anti-tuberculosis chemotherapy; cited from earlier work
# [6] = test system: drug-induced liver production of H2O2; details: APAP 300 mg/kg i.p.; 0.2 mg luminol i.v., dose equal to CPPO in 0.8 mg CF-SPN
# [7] = 200, 100, 50 mg/kg i.p., 0.8 mg CF-SPN i.v.
compound,measurement,setting,value
"Nn1nnc2ccccc21 [1-ABT, 1-aminobenzotriazole]",duration of H2O2 production after CF-SPN administration,[1]; APAP 300 mg/kg i.p. with 1-ABT 2×100 mg/kg i.p.,less than 20 min
same,FL index / ONOO/HOCl production in liver,[1],suppressed ONOO/HOCl production to the same extent
same,luminescence emission / H2O2 production in liver,[1],intense but short-lived
"CC(=O)Nc1ccc(O)cc1 [APAP, acetaminophen]",liver chemiluminescence (H2O2),"[2]; 150 mg/kg and 75 mg/kg i.p., 0.8 mg CF-SPN i.v.",only baseline luminescence similar to untreated mice
same,liver chemiluminescence (H2O2),"[2]; 300 mg/kg i.p., by 18 min after start of imaging, 0.8 mg CF-SPN i.v.",significant enhancement in signal
same,elevation in percent difference between fluorescence emission at 680 nm and 820 nm (ONOO/HOCl),"[2]; 53 min after CF-SPN administration, doses 300, 150, 75 mg/kg i.p.",only observed for mice receiving 300 mg/kg APAP
same,timing of increase in ONOO/HOCl generation (FL index),[2]; APAP overdose 300 mg/kg i.p.,later than the generation of H2O2
same,foci positive for protein nitrotyrosyl residues or TUNEL (DNA fragmentation),[3]; 45 min after drug administration,no foci positive
same,histological changes in liver tissue (hematoxylin/eosin),"[3]; 45 min after drug challenge, any dose level (300, 150, 75 mg/kg)",No histological changes
same,immunohistochemical and histological findings in liver,"[3]; 180 min after administration, 300 mg/kg","significant protein nitrotyrosyl and TUNEL-positive foci, as well as hepatocellular degeneration characteristic of APAP-induced oncotic necrosis"
same,immunohistochemical or histological changes to liver tissue,"[3]; lower doses (150 mg/kg, 75 mg/kg)",did not induce immunohistochemical or histological changes to liver tissue
same,time after administration within which a significant decrease in H2O2 production occurs,[4],≤ 60 min
"N[C@@H](CCC(=O)N[C@@H](CS)C(=O)NCC(=O)O)C(=O)O [GSH, glutathione]",FL index / ONOO/HOCl production in liver,[1],"reduced level of H2O2 and ONOO/HOCl production relative to mice receiving APAP alone, but still elevated"
same,luminescence emission / H2O2 production in liver,[1],"reduced level of H2O2 and ONOO/HOCl production relative to mice receiving APAP alone, but still elevated"
"NNC(=O)c1ccncc1 [INH, isoniazid]",dose dependence of H2O2 production (chemiluminescence),[2]; [7],threshold dose-type production
same,dose dependence of ONOO/HOCl production (fluorescence index),[2]; [7],dose-dependent enhancement
same,kinetics of oxidative stress compared with APAP,"[2]; i.p., chemiluminescent channel",more short-lived oxidative burst
same,kinetics of nitrosative stress compared with APAP,"[2]; i.p., fluorescent channel",more rapidly developed and sustained induction of nitrosative stress
same,"severity of liver tissue degradation (histology, H&E)","[3]; 180 min after drug administration, 200, 100, 50 mg/kg i.p.",dose-dependent increase in the severity of liver tissue degradation
same,patients with associated hepatotoxicity,[5],≤ 25%
"Nc1cccc2c(=O)[nH][nH]c(=O)c12 [Luminol, luminol]",luminescent signal from liver after APAP overdose,[6],did not produce any detectable luminescent signal
"Cl/C=C/Cl [t-1,2-DCE, trans-1,2-dichloroethylene]",FL index / ONOO/HOCl production in liver,[1],suppressed ONOO/HOCl production to the same extent
same,luminescence emission / H2O2 production in liver,[1],completely prevent H2O2 production
